The values below come from patent publication US4797421A, “Antioxidant comprising proanthocyanidin as principal component” (Kikkoman Corporation, priority 1987, dated 1989).

A short description of the assay: Amount of lipid peroxide in salad oil heated at 180° C. with oxygen bubbling (Test Example 1, Table 1). The arrangement: Amount of lipid peroxide: unit not given here. To be noted: 0.2 mg/ml in salad oil, oxygen 2 ml/sec, 40 minutes; for Amount of lipid peroxide: no additive 65.2, non-treated 10.1. Here is the method: A commercially sold salad oil (a product by Showa Sangyo Co., Ltd.) was pipetted 5 ml each into test tubes. Then various kinds of proanthocyanidins shown in Table 1 below were added thereto a concentration of 0.2 mg/ml and dissolved by stirring. The test tubes were kept in an 180° C. thermostatic oil bath and oxygen gas was bubbled into them at a rate of 2 ml/sec. 40 mintues thereafter, the amount of lipid peroxide in the salad oil was measured by the method shown in Yagi's Vitamins, Vol. 49, pp. 403-405. Used as controls were said salad oil added with no proanthocyanidin (control I) and those added with a commercial catechin, a gallocatechin obtained as a by-product in Preparation Example 5 and an epigallocatechin gallate, which are the monomers forming a structural unit of proanthocyanidins (control II). These control salad oil samples were similarly treated and the amount of lipid peroxide was similarly measured, the results being shown in Table 1.

As for `Oc1cc(O)c2c(c1)OC1(c3ccc(O)c(O)c3)Oc3cc(O)c4c(c3C2C1O)OC(c1ccc(O)c(O)c1)C(O)C4` (centres unmarked) [Dimeric procyanidin A-2, procyanidin A-2], the “Amount of lipid peroxide” value stood at 25.0.

With `Oc1cc(O)c2c(c1)O[C@H](c1cc(O)c(O)c(O)c1)[C@@H](O)[C@@H]2c1c(O)cc(O)c2c1O[C@H](c1cc(O)c(O)c(O)c1)[C@@H](O)C2` [Dimeric prodelphinidin B-3, prodelphinidin B-3], the “Lipid peroxide rise inhibition rate” value is listed as 85% and the “Amount of lipid peroxide” value turned out to be 17.2.

Consider `Oc1cc(O)c2c(c1)OC(c1ccc(O)c(O)c1)C(O)C2c1c(O)cc(O)c2c1OC(c1ccc(O)c(O)c1)C(O)C2c1c(O)cc(O)c2c1OC(c1ccc(O)c(O)c1)C(O)C2c1c(O)cc(O)c2c1OC(c1ccc(O)c(O)c1)C(O)C2` (centres unmarked) [Tetrameric procyanidin], for which the “Lipid peroxide rise inhibition rate” value came out at 62% and the “Amount of lipid peroxide” value was 29.1.

For the compound `O=C(OC1Cc2c(O)cc(O)c(C3c4c(O)cc(O)cc4OC(c4ccc(O)c(O)c4)C3OC(=O)c3cc(O)c(O)c(O)c3)c2OC1c1ccc(O)c(O)c1)c1cc(O)c(O)c(O)c1` (centres unmarked) [procyanidin B-2 gallic acid diester], the “Lipid peroxide rise inhibition rate” value came to 98% and the “Amount of lipid peroxide” value is reported as 10.5.

`Oc1cc(O)c2c(c1)OC(c1cc(O)c(O)c(O)c1)C(O)C2c1c(O)cc(O)c2c1OC(c1cc(O)c(O)c(O)c1)C(O)C2c1c(O)cc(O)c2c1OC(c1ccc(O)c(O)c1)C(O)C2` (centres unmarked) [Trimeric prodelphinidin]: the “Lipid peroxide rise inhibition rate” value is given as 74% and the “Amount of lipid peroxide” value worked out at 22.9.

For the compound `O=C(OC1Cc2c(O)cc(O)c(C3c4c(O)cc(O)cc4OC(c4cc(O)c(O)c(O)c4)C3OC(=O)c3cc(O)c(O)c(O)c3)c2OC1c1cc(O)c(O)c(O)c1)c1cc(O)c(O)c(O)c1` (centres unmarked) [prodelphinidin B-2 gallic acid diester], the “Lipid peroxide rise inhibition rate” value amounted to 100% and the “Amount of lipid peroxide” value is 10.1.

Consider `Oc1cc(O)c2c(c1)OC(c1ccc(O)c(O)c1)C(O)C2c1c(O)cc(O)c2c1OC(c1ccc(O)c(O)c1)C(O)C2` (centres unmarked) [Dimeric procyanidin B-2, procyanidin B-2], for which the “Amount of lipid peroxide” value is 22.4.

On to `Oc1cc(O)c2c(c1)O[C@H](c1ccc(O)c(O)c1)[C@@H](O)C2` [Commercial d-catechin, d-catechin, reference compound], for which the “Amount of lipid peroxide” value was 54.7.

Regarding `O=C(O[C@@H]1Cc2c(O)cc(O)cc2O[C@@H]1c1cc(O)c(O)c(O)c1)c1cc(O)c(O)c(O)c1` [Epigallocatechin gallate, reference compound], the “Lipid peroxide rise inhibition rate” value turned out to be 35% and the “Amount of lipid peroxide” value was 45.0.

Consider `Oc1cc(O)c2c(c1)O[C@H](c1cc(O)c(O)c(O)c1)[C@@H](O)C2` [Gallocatechin, gallocatechin, reference compound], for which the “Lipid peroxide rise inhibition rate” value is 32% and the “Amount of lipid peroxide” value was determined as 44.7.
